Each structure is given as a SMILES string. Where two headings read alike, the source gives them in different places.

One assay relates to mu opiate receptor (MOR). Description: MOR agonist activity using [35S]GTPγS binding assay in striatal membranes. The assay is classed as biochemical. The settings on record: for % DAMGO (0.1 μM) / % DAMGO (1 μM): relative to DAMGO; for % DAMGO + BFNA: 1 μM compound + β-FNA, relative to DAMGO + BFNA. Summed up: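 Striatal membranes (200 μg) were preincubated 5 min at 30 °C in HEPES pH 7.5 with 100 mM NaCl, 1 mM MgCl2 and 0.5 nM [35S]GTPγS, then 5 min more with 0.1–10 μM compound. Gαo was immunoprecipitated and bound radioactivity counted by scintillation.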

Assay [1] concerns the target FLNA pentapeptide of SEQ ID NO: 1 (Bn-VAKGL) (Homo sapiens, UniProt P21333). Description: FITC-NLX-based FLNA screening assay (inhibition of FITC-naloxone binding to Bn-VAKGL on streptavidin plates). To be noted: 10 nM FITC-NLX.
Setting [2] is: Series B, 0.1 μM compound, [35S]GTPγS binding to Gαo, striatal membranes.
Setting [3] is: Series B, 1 μM compound + 1 μM β-FNA.
Setting [4] is: Series B, 1 μM compound, [35S]GTPγS binding to Gαo, striatal membranes.
Setting [5] is: read-out: Percent Binding Inhibition, FLNA-binding compound 0.01 μM.
Setting [6] is: read-out: Percent Binding Inhibition, FLNA-binding compound 0.1 μM.
The mark [7] stands for this setting: read-out: Percent Binding Inhibition, FLNA-binding compound 1 μM.
The mark [8] stands for this setting: Series C-1, 0.1 μM compound, [35S]GTPγS binding to Gαo, striatal membranes.
[9] abbreviates: Series C-1, 1 μM compound + 1 μM β-FNA.
The mark [10] stands for this setting: Series C-1, 1 μM compound, [35S]GTPγS binding to Gαo, striatal membranes.
Where [11] appears, read: FLNA-binding compound 0.01 μM, read-out: Percent Binding Inhibition.
Setting [12] is: FLNA-binding compound 0.1 μM, read-out: Percent Binding Inhibition.
The mark [13] stands for this setting: FLNA-binding compound 1 μM, read-out: Percent Binding Inhibition.

For the compound `COc1cccc(CC(=O)CC2c3c(cc4c(c3OC)OCO4)CC[N+]2(C)C)c1OC` (stereo not drawn) [Compound B0038], the “% DAMGO (0.1 μM)” value in the assay with mu opiate receptor (MOR) (Series B, 0.1 μM compound) is 94.2%. The “MOR agonist activity, percent [35S]GTPγS binding at the stated compound concentration” value (“MOR agonist activity, percent” below) in the assay with mu opiate receptor (MOR) (setting [2]) turned out to be 147.5%; in the assay on mu opiate receptor (MOR) (setting [3]), 117.1%; in the assay with mu opiate receptor (MOR) (setting [4]) it was 205.3%. Besides, the “% DAMGO + BFNA” value in the assay on mu opiate receptor (MOR) (Series B) is recorded as 359.2%. Moreover, in the assay on mu opiate receptor (MOR) (Series B, 1 μM compound), the “% DAMGO (1 μM)” value was determined as 88.7%. Besides, the inhibition at 0.01 µM in assay [1] (setting [5]) was 41.2%. Also, the inhibition at 0.1 µM in assay [1] (setting [6]) amounted to 50.1%. The inhibition at 1 µM in assay [1] (setting [7]) came to 57%.

For the compound `COc1cc(S(=O)(=O)N2CCC3(CC2)OCCN3S(=O)(=O)c2cc(OC)c(OC)c(OC)c2)cc(OC)c1OC` [Compound C0062], the “% DAMGO (0.1 μM)” value with mu opiate receptor (MOR) (Series C-1, 0.1 μM compound) came to 81.9%. For the same compound, the “Concentration of FLNA-Binding Compound as Agonist 0.1 μM” value (“Concentration … as Agonist 0.1 μM” for short) in the assay on mu opiate receptor (MOR) (setting [8]) is recorded as 127.8%. In addition, the “Concentration of FLNA-Binding Compound as Agonist 1 μM + BFNA” value (“Concentration … as Agonist 1 μM + BFNA” below) in the assay with mu opiate receptor (MOR) (setting [9]) was found to be 59.8%. In the assay on mu opiate receptor (MOR) (Series C-1), the “% DAMGO + BFNA” value was found to be 149.9%. Further, the “% DAMGO (1 μM)” value in the assay on mu opiate receptor (MOR) (Series C-1, 1 μM compound) is 134.7%. Further, the “Concentration of FLNA-Binding Compound as Agonist 1 μM” value in the assay on mu opiate receptor (MOR) (setting [10]) was determined as 310.5%. In addition, in assay [1] (setting [11]), the inhibition at 0.01 µM came out at 39.5%. Also, the inhibition at 0.1 µM in assay [1] (setting [12]) was 49.5%. For the same compound, the inhibition at 1 µM in assay [1] (setting [13]) was 48%.

With `CC(=O)c1ccc(C(=O)N2CCC3(CC2)OCCN3S(=O)(=O)c2ccc(C(C)=O)cc2)cc1` [Compound C0052], in the assay on mu opiate receptor (MOR) (Series C-1, 0.1 μM compound), the “% DAMGO (0.1 μM)” value amounted to 74.8%. Besides, the “Concentration … as Agonist 0.1 μM” value in the assay with mu opiate receptor (MOR) (setting [8]) came out at 108.4%. Moreover, the “Concentration … as Agonist 1 μM + BFNA” value in the assay on mu opiate receptor (MOR) (setting [9]) amounted to 42.7%. Also, in the assay on mu opiate receptor (MOR) (Series C-1), the “% DAMGO + BFNA” value is reported as 97.0%. Besides, the “% DAMGO (1 μM)” value in the assay with mu opiate receptor (MOR) (Series C-1, 1 μM compound) is recorded as 69.9%. In the assay with mu opiate receptor (MOR) (setting [10]), the “Concentration of FLNA-Binding Compound as Agonist 1 μM” value turned out to be 162.8%. For the same compound, the inhibition at 0.01 µM in assay [1] (setting [5]) amounted to 28%. Further, in assay [1] (setting [6]), the inhibition at 0.1 µM is 35.6%. The inhibition at 1 µM in assay [1] (setting [7]) came to 40.8%.

As to `CCCCN1CCC2(CC1)OCCN2S(=O)(=O)c1ccc(C(C)=O)cc1` [Compound C0101M], the “% DAMGO (0.1 μM)” value in the assay with mu opiate receptor (MOR) (Series C-2, 0.1 μM compound) was found to be 82.5%. In addition, the “MOR agonist activity, percent” value worked out at 138.2% in the assay on mu opiate receptor (MOR) (Series C-2, 0.1 μM compound, [35S]GTPγS binding to Gαo, striatal membranes); 174.8% in the assay on mu opiate receptor (MOR) (Series C-2, 1 μM compound + 1 μM β-FNA); 274.3% with mu opiate receptor (MOR) (Series C-2, 1 μM compound, [35S]GTPγS binding to Gαo, striatal membranes). Also, the “% DAMGO + BFNA” value in the assay on mu opiate receptor (MOR) (Series C-2) is 368.0%. Moreover, the “% DAMGO (1 μM)” value with mu opiate receptor (MOR) (Series C-2, 1 μM compound) is recorded as 123.4%. In addition, in assay [1] (setting [11]), the inhibition at 0.01 µM was 50.5%. Moreover, the inhibition at 0.1 µM in assay [1] (setting [12]) came to 56.4%. In assay [1] (setting [13]), the inhibition at 1 µM worked out at 59%.

With `Cc1ccc(S(=O)(=O)N2CCC3(CC2)OCCN3S(=O)(=O)c2ccc(C)cc2)cc1` [Compound C0001], in the assay on mu opiate receptor (MOR) (Series C-1, 0.1 μM compound), the “% DAMGO (0.1 μM)” value worked out at 75.2%. In the assay with mu opiate receptor (MOR) (setting [8]), the “Concentration … as Agonist 0.1 μM” value was determined as 129.3%. Besides, in the assay on mu opiate receptor (MOR) (setting [9]), the “Concentration … as Agonist 1 μM + BFNA” value is on record as 33.9%. Also, in the assay on mu opiate receptor (MOR) (Series C-1), the “% DAMGO + BFNA” value was 52.9%. The “% DAMGO (1 μM)” value in the assay with mu opiate receptor (MOR) (Series C-1, 1 μM compound) worked out at 66.6%. In addition, in the assay on mu opiate receptor (MOR) (setting [10]), the “Concentration of FLNA-Binding Compound as Agonist 1 μM” value worked out at 184.3%. Further, the inhibition at 0.01 µM in assay [1] (setting [5]) turned out to be 34.8%. In addition, the inhibition at 0.1 µM in assay [1] (setting [6]) turned out to be 42.9%. In addition, in assay [1] (setting [7]), the inhibition at 1 µM was 51.3%.

For the compound `COc1cc(OC)cc(C(=O)CC2c3c(cc4c(c3OC)OCO4)CC[N+]2(C)C)c1` (stereo not drawn) [Compound B0035], the “% DAMGO (0.1 μM)” value in the assay with mu opiate receptor (MOR) (Series B, 0.1 μM compound) was 109.8%. Besides, the “MOR agonist activity, percent” value with mu opiate receptor (MOR) (setting [2]) was 188.0%; with mu opiate receptor (MOR) (setting [3]) it was 74.2%; in the assay on mu opiate receptor (MOR) (setting [4]) it was 248.7%. Besides, in the assay with mu opiate receptor (MOR) (Series B), the “% DAMGO + BFNA” value came to 142.4%. For the same compound, in the assay on mu opiate receptor (MOR) (Series B, 1 μM compound), the “% DAMGO (1 μM)” value amounted to 93.2%. The inhibition at 0.01 µM in assay [1] (setting [5]) was determined as 45.4%. The inhibition at 0.1 µM in assay [1] (setting [6]) came out at 44.7%. Also, the inhibition at 1 µM in assay [1] (setting [7]) turned out to be 51%.

For the origin of these results see US10363239B2, “Method for inhibiting growth of cancer cells” (Pain Therapeutics, Inc., priority 2013, dated 2019).
